Laboratory results published in patent US8815857B2 (Boehringer Ingelheim International GmbH, priority 2011, dated 2014).
Values after ≈ are worked out from the molar mass of the structure shown.

Legend:
[1] = molecular target: T1, Recombinant human soluble guanylate cyclase (sGC), alpha 1 / beta 1 subunits, heme-free (Homo sapiens, UniProt Q02108+Q02153); experiment: Molecular assay: cGMP formation by heme-free recombinant sGC (CisBio cGMP detection kit); type: biochemical; settings: 300 pM heme-free sGC, 37° C., 60 min, cGMP readout; read-out: EC50 nM, Activity of Compounds in Molecular Assay
T1 construct: histidine tag (C); made in house; host or cells: Sf9 insect cells (baculovirus coinfection)
T1 sequence (Q02108 1-690 partner): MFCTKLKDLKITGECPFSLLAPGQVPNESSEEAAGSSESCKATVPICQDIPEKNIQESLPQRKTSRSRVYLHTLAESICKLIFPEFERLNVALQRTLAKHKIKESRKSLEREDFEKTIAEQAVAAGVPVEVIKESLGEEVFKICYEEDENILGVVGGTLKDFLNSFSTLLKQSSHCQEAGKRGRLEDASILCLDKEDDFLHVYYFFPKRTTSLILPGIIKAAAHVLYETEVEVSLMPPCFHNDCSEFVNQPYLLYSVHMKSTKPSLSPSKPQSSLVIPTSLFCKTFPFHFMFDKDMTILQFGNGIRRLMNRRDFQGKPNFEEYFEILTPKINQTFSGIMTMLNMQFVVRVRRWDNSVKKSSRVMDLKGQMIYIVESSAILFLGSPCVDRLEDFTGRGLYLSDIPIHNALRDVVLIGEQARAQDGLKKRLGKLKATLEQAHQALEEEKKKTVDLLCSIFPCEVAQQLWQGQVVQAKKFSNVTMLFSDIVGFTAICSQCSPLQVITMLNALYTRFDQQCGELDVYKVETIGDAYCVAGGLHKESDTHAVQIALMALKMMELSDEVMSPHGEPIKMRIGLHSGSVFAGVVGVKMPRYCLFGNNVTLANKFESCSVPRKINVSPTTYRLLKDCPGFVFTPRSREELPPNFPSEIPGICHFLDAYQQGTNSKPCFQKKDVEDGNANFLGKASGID
T1 sequence (Q02153 1-619): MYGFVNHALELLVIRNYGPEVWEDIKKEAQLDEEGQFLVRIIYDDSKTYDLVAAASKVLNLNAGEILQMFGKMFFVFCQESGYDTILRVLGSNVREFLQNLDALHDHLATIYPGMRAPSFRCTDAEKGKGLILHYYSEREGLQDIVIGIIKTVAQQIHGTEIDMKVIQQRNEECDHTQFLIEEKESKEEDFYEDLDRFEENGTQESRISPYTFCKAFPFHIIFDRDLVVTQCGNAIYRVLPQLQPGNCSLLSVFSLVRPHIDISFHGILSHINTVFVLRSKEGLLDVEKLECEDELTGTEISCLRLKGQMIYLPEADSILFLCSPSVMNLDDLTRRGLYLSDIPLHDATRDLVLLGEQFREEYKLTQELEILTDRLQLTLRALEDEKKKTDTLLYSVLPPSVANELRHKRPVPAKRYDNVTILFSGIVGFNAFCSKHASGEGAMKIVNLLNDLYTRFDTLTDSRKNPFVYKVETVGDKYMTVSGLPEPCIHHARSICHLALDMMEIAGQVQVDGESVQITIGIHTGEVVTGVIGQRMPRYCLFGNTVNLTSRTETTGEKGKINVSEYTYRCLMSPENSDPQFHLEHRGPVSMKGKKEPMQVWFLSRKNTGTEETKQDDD
Procedure: Recombinant human soluble guanylate cyclase (sGC) is purified from Sf9 insect cells coinfected with baculoviruses expressing the alpha 1 or beta 1 subunit of sGC, both with a C-terminal histidine tag. Heme-free sGC is prepared by treating cell lysate with a final concentration of 0.5% Tween 20 prior to purification on a nickel affinity column.
sGC catalyzes the conversion of guanosine-5′-triphosphate (GTP) to cyclic guanosine monophosphate (cGMP). The activity of sGC is measured in vitro using the commercially available CisBio cGMP detection kit (catalog # 62GM2PEB) in a 384 well format. In brief, 300 pM heme-free sGC is incubated in reaction buffer (50 mM MOPS pH 6.8, 0.2 N KOH, 50 mM NaCl, 2 mM MgCl2, 0.1% BSA, 1.25 mM IBMX, 0.25 mM TCEP, 50 nM GTP) in the presence or absence of dilutions of test compounds diluted in DMSO (final concentration of 1%) in a volume of 10 microL at 37° C. for 60 min. Undiluted reaction products or an 80-fold dilution of reaction products (10 microL of either) prepared in reaction buffer containing 0.2 mM TCEP and 10 mM EDTA is mixed with 5 microL of d2-cGMP plus 5 microL of Eu^3+ cryptate-labeled anti-cGMP, each diluted in buffer containing 0.1 M KPO4 pH 7.5, 0.4 M KF, 20 mM EDTA, 0.2% BSA. After a one h incubation at room temperature in the dark, the mixtures are quantified on an EnVision plate reader (PerkinElmer) according to manufacturer instructions (laser excitation 337 nm, emission 620 and 665 nm). The ratio at each compound concentration is converted to nM cGMP using the linear portion of a calibration curve. Log compound concentration is plotted against combined undiluted and diluted nM cGMP values to determine the EC50 for each curve.

[2] = Assessment of solubility: HT solubility in pION buffer, UV spectrophotometry; settings: 16-19 h incubation, 1.0% DMSO; for solubility: pION system solution buffer, kinetic from dmso stock
Procedure: Solubility is measured by the following method.
DMSO stock samples at 10 mM concentration are prepared. […] The samples are pierced and 100 ul of thawed samples are transferred into the PCR plate for analysis. Each sample is run in duplicate at each pH (pH 4.5 and 7.4). Up to 95 samples can be run in replicate at 2 pH's+1 DMSO (blank).
Preparation of pH 4.5 and 7.4 Buffers:
• pH 4.5 buffer:—To 12.5 of system solution (pION)qs to 500 mL of distilled water (pH 2.85-2.90); adjust the pH to pH 4.5 with 0.5 N NaOH. • pH 7.4 buffer: To 12.5 of system solution (pION)qs to 500 mL of distilled water (pH 2.85-2.90); adjust the pH to pH 7.4 with 0.5N NaOH. […] Procedure: Preparation of UV Blank Plate:
75 ul of buffer (pH 7.4 or pH 4.5) is added to UV plate followed by addition of 70 ul of N-propanol. The solution is mixed and the blank spectrum is read using spectrophotometer.
Preparation of Reference UV Plate:
10 ul of each stock sample (including DMSO control) is added to 190 ul of N-propanol to prepare the reference stock plate. Reference stock samples are mixed and 5 ul of each stock sample is added to UV blank plate after it is read spectrophotometrically. The reference stock sample is mixed with blank solution in UV plate and the reference spectrum is read using UV spectrophotometer.
Preparation of Sample for Incubation:
Solubility at pH 7.4:6 ul of each stock sample (including DMSO control) is added to the storage plate containing 600 ul of pH 7.4 buffer, mixed and incubated for 16-19 h. The plate is sealed well during the incubation process. The DMSO content in the sample is 1.0%. The concentration in deep well plates is 100 uM
6 ul of each stock sample (including DMSO control) is added to the deep well plate containing 600 ul of pH 4.5 buffer, mixed and incubated for 16-19 h. The plate is sealed well during the incubation process. The DMSO content in the sample is 1.0%. The concentration in deep well plates is 100 uM
Preparation of Sample UV Plate:
At the end of the incubation period, 100 uL of sample from the storage plate is vacuum filtered using a filter plate. This step wets the filters and the filtrate is discarded. Another 200 ul of the sample from the deep well plate is vacuum filtered using the same filter block but a clean filter plate. 75 ul of the filtrate from the filter plate is transferred to a UV sample plate. 75 ul of N-propanol is added to this UV plate. The solution is mixed and the spectrum is read using the UV spectrophotometer.
The spectra collected for blank, reference and sample from 250-498 nm is analyzed using pION software. If the sample precipitates out, the solubility is reported as XX μg/ml.

[3] = pH 4.5, pH 4.5, aqueous buffer, Solubility (pH 4.5), pH 4.5 buffer
[4] = pH 7.4, pH 7.4, aqueous buffer, Solubility (pH 7.4), pH 7.4 buffer

| Structure (SMILES) | EC50 [1] | solubility [2, 3] | solubility [2, 4] | Solubility (pH 4.5) ([2]; pH 4.5 buffer) | Solubility (pH 7.4) ([2]; pH 7.4 buffer) |
| --- | --- | --- | --- | --- | --- |
| Cc1cc(C(=O)N2CCCCC2)ccc1COc1ccccc1-c1csc(N2CCC(C(=O)O)C(C(F)(F)F)C2)n1 (stereo not drawn) [Compound 127] | 400 nM | 0.2 µg/mL (≈ 0.34 µM) | > 58 µg/mL |  |  |
| Cc1ccc(OCc2ccc(C(=O)N3CCCC3)cc2C)c(-c2csc(N3CCC(C(=O)O)CC3)n2)c1 [Compound 13] | 120 nM |  |  | 17 μg/mL | >51 μg/mL |
| Cc1cc(C(=O)N2CCCCC2)ccc1COc1ccccc1-c1csc(N2CC3C(C2)C3C(=O)O)n1 (stereo not drawn) [Compound 9] | 680 nM | 5.6 µg/mL (≈ 10.8 µM) | > 51 µg/mL |  |  |
| COCCCN(C)C(=O)c1ccc(COc2ccc(C)cc2-c2csc(N3CCC(C(=O)O)CC3)n2)c(C#N)c1 [Compound 92] | 78 nM | 20 µg/mL (≈ 35.5 µM) | 12 µg/mL (≈ 21.3 µM) |  |  |
| Cc1ccc(OCc2ccc(C(=O)N3CCCCC3)cc2C)c(-c2csc(C3=CCC(C(=O)O)CC3)n2)c1 (stereo not drawn) [Compound 32] | 310 nM | 0.15 µg/mL (≈ 0.283 µM) | 29 µg/mL (≈ 54.6 µM) |  |  |
| Cc1ccc(OCc2ccc(C(=O)N3CCOCC3)cc2C#N)c(-c2csc(N3CCC(C(=O)O)CC3)n2)c1 [Compound 70] | 180 nM | 0.45 µg/mL (≈ 0.823 µM) | > 54 µg/mL |  |  |
| Cc1ccc(OCc2ccc(CN3CCOCC3)cc2C)c(-c2csc(N3CC[C@@H](C(=O)O)[C@@H](C)C3)n2)c1 (single isomer, unassigned) [Compound 50] | 520 nM | 18 µg/mL (≈ 33.6 µM) | > 53 µg/mL |  |  |
| Cc1cc(C(=O)N2CCCCC2)ccc1COc1ccc(Cl)cc1-c1csc(C2=CCC(C(=O)O)CC2)n1 (stereo not drawn) [Compound 76] | 600 nM |  | 4.1 µg/mL (≈ 7.44 µM) | 0.1 μg/mL |  |
| Cc1ccc(OCc2ccc(C(=O)N3CCC(F)(F)CC3)cc2C)c(-c2csc(N3CCC(C(=O)O)CC3)n2)c1 [Compound 106] | 100 nM | 0.3 µg/mL (≈ 0.527 µM) | > 56 µg/mL |  |  |
| Cc1ccc(OCc2ccc(CN3CCOCC3)cc2C)c(-c2csc(N3CCCC(C(=O)O)CC3)n2)c1 (stereo not drawn) [Compound 52] | 39 nM | > 58 µg/mL | > 58 µg/mL |  |  |
| Cc1cc(CN2CCOCC2)ccc1COc1ccc(Cl)cc1-c1csc(N2CC3CCC(C2)C3C(=O)O)n1 (stereo not drawn) [Compound 99] | 690 nM | 4.7 µg/mL (≈ 8.27 µM) | 13 µg/mL (≈ 22.9 µM) |  |  |
| Cc1cc(CN2CCS(=O)(=O)CC2)ccc1COc1ccccc1-c1csc(N2CCC(C(=O)O)C(C)C2)n1 (stereo not drawn) [Compound 107] | 71 nM | 0.65 µg/mL (≈ 1.14 µM) | > 56 µg/mL |  |  |
| Cc1cc(CN2CCS(=O)(=O)CC2)ccc1COc1ccccc1-c1csc(N2CC3C(C2)C3C(=O)O)n1 (stereo not drawn) [Compound 82] | 3100 nM | 12 µg/mL (≈ 21.7 µM) | > 55 µg/mL |  |  |
| Cc1ccc(OCc2ccc(CN3CCOCC3)cc2C)c(-c2csc(N3CC[C@@H](C(=O)O)C3)n2)c1 (single isomer, unassigned) [Compound 5, R-1-{4-[5-methyl-2-(2-methyl-4-morpholin-4-ylmethyl-benzyloxy)-phenyl]-thiazol-2-yl}-pyrrolidine-3-carboxylic acid] | 2000 nM | 37 µg/mL (≈ 72.9 µM) | 40 µg/mL (≈ 78.8 µM) |  |  |
| Cc1ccc(OCc2ccc(CN(C)CC3CCCCC3)cc2C)c(-c2csc(N3CCC(C(=O)O)CC3)n2)c1 [Compound 91] | 730 nM | 31 µg/mL (≈ 55.2 µM) | 12 µg/mL (≈ 21.4 µM) |  |  |
| Cc1ccc(OCc2ccc(CN3CCOCC3)cc2C)c(-c2csc(N3CCCC(C(=O)O)C3)n2)c1 (stereo not drawn) [Compound 22] | 1600 nM | > 63 µg/mL | > 63 µg/mL |  |  |
| Cc1cc(C(=O)N2CCCCC2)ccc1COc1ccc(F)cc1-c1csc(C2=CCC(C(=O)O)CC2)n1 (stereo not drawn) [Compound 48] | 360 nM |  | 27 µg/mL (≈ 50.5 µM) | 0.1 μg/mL |  |
| Cc1cc(CN2CCOCC2)ccc1COc1ccc(C#N)cc1-c1csc(N2CC3C(C2)C3C(=O)O)n1 (stereo not drawn) [Compound 33] | 7800 nM | > 60 µg/mL | > 60 µg/mL |  |  |
| Cc1ccc(OCc2ccc(CN3CCOCC3)cc2C)c(-c2csc(N[C@H]3CC[C@@H](C(=O)O)C3)n2)c1 [Compound 181] | 3100 nM | > 52 µg/mL | > 52 µg/mL |  |  |
| CC(=O)N1CCN(Cc2ccc(COc3c(C)cccc3-c3csc(N4CCC(C(=O)O)CC4)n3)c(C)c2)CC1 [Compound 95] | 35 nM | > 56 µg/mL | > 56 µg/mL |  |  |
| Cc1cc(CN2CCS(=O)(=O)CC2)ccc1COc1ccccc1-c1csc(N2CCC(C(=O)O)C(C(F)(F)F)C2)n1 (stereo not drawn) [Compound 150] | 1200 nM | 1.4 µg/mL (≈ 2.24 µM) | > 62 µg/mL |  |  |
| Cc1ccc(OCc2ccc(CN3CCOCC3)cc2C)c(-c2csc(N3C4CCC3CC(C(=O)O)C4)n2)c1 (stereo not drawn) [Compound 174] | 320 nM | > 66 µg/mL | > 66 µg/mL |  |  |
| Cc1ccc(OCc2ccc(CN3CCCCC3)cc2C#N)c(-c2csc(N3CCC(C(=O)O)CC3)n2)c1 [Compound 29] | 440 nM | > 64 µg/mL | 5.2 µg/mL (≈ 9.8 µM) |  |  |
| Cc1ccc(OCc2ccc(CN3CCN(C(=O)N(C)C)CC3)cc2C)c(-c2csc(N3CCC(C(=O)O)CC3)n2)c1 [Compound 199] | 140 nM | > 59 µg/mL | > 59 µg/mL |  |  |
| Cc1ccc(OCc2ccc(CN3CCOCC3)cc2C)c(-c2csc(C3=CCC(C(=O)O)CC3)n2)c1 (stereo not drawn) [Compound 10] | 4900 nM | 14 µg/mL (≈ 27 µM) | 22 µg/mL (≈ 42.4 µM) |  |  |
